Earlier results as cited in US20020039567A1, “Methods of treating bone or cartilage conditions by the administration of creatine” (priority 1998, published 2002).

Tests used:
[1] = tested on: chick limb bud mesenchymal cells; settings: cited from earlier work; for mineralization: addition of 1 and 2 mM ATP or 2 mM PCr; for rate of cell proliferation, rate of matrix synthesis, mean crystallite length, rate of mineral deposition: contrasted with cultures supplemented with inorganic phosphate
[2] = tested on: CK activity in rat epiphyseal cartilage cells; settings: cited from earlier work
[3] = tested on: CK activity in chondroblasts and osteoblasts; settings: cited from earlier work
SaOS-2 cells = settings: cited from earlier work
embryonic chick femora = settings: cited from earlier work

What does the source list for Nc1ncnc2c1ncn2[C@@H]1O[C@H](COP(=O)(O)OP(=O)(O)OP(=O)(O)O)[C@@H](O)[C@H]1O [ATP]?
mineralization [1]: promoted; rate of cell proliferation, rate of matrix synthesis, mean crystallite length, rate of mineral deposition [1]: does not alter

Which “increase in CK activity” value [2] does the source give for C[C@]12CC[C@@H]3c4ccc(O)cc4CC[C@H]3[C@@H]1CC[C@@H]2O [E2, 17b-estradiol] here?
The value was 40%.

Which “effect of tamoxifen by itself” value ([3]; high concentrations) does the source give for CC/C(=C(\c1ccccc1)c1ccc(OCCN(C)C)cc1)c1ccccc1 [tamoxifen] here?
The value was “stimulatory effects”.

And the “effect of E2 in presence of tamoxifen” value ([3]; high levels of tamoxifen)?
The value was “inhibited”.

Which results are given for phosphocreatine [PCr]?
mineralization [1]: promoted; rate of cell proliferation, rate of matrix synthesis, mean crystallite length, rate of mineral deposition [1]: does not alter; alkaline phosphatase (ALP) activity (SaOS-2 cells): increases; perichondral ossification in the diaphysis (embryonic chick femora; 0.1 mM in chick embryo extract with 20% horse serum): accelerated; deposition of calcium in the cartilage matrix of the epiphysis (embryonic chick femora; very crude preparations at 0.1 mM in chick embryo extract with 20% horse serum): accelerated
